{"source": "ChEMBL document CHEMBL3886292", "about": "“Functionally selective ligands of dopamine D2 receptors” (2015)", "key": {"D(2) dopamine receptor [1]": {"biological_target": "T1, D(2) dopamine receptor (Homo sapiens, UniProt P14416)", "T1 sequence (P14416 whole entry)": "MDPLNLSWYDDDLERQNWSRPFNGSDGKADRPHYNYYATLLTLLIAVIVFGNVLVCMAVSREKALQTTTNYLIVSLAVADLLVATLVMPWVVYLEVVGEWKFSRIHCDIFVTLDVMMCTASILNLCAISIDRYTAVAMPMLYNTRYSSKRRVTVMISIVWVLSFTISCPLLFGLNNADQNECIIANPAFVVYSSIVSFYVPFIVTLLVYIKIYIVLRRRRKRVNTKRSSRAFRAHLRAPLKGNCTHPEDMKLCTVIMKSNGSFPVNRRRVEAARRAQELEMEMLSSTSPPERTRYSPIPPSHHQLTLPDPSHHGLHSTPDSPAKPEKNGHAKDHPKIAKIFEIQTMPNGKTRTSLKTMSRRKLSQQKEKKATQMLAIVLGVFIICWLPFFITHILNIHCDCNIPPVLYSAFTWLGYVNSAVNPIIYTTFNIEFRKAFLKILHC", "assay": "cAMP GloSensor Assay: HEK293T cells co-expressing the cAMP biosensor GloSensor-22F (Promega) and hD2 receptors were seeded (10,000 cells/20 ul/well) into white, clear-bottom, tissue culture plates in HBSS, 10% FBS, 20 mM HEPES, pH 7.4. After a one- to two-hour recovery, cells were treated with 10 ul of 3x test or reference drug prepared in HBSS, 10% FBS, 20 mM HEPES, pH 7.4. After 30 minutes, cells were challenged with 10 ul of 1,200 nM (4x) isoproterenol in 8% (4x) GloSensor reagent. Luminescence per well per second was read on a Wallac TriLux microbeta plate counter. Data were normalized to the isoproterenol response (100%) and the maximal quinpirole-induced inhibition thereof (0%) and regressed using the sigmoidal dose-response function built into GraphPad Prism 4.0.", "assay_type": "functional, cell-based, HEK-293T"}, "D(2) dopamine receptor [2]": {"biological_target": "T1, D(2) dopamine receptor", "assay": "Beta-Arrestin Recruitment (Tango) Assay: Recruitment of β-arrestin to agonist-stimulated D2 receptors was performed using a previously described Tango-type assay (Barnea et al., Proc. Natl. Acad. Sci. USA 105:64 (2008)). Briefly, HTLA cells stably expressing β-arrestin-TEV protease and a tetracycline transactivator-driven luciferase were plated in 15-cm dishes in DMEM containing 10% fetal bovine serum and transfected (via calcium phosphate) with 20 μg of a D2V2-TCS-tTA construct (Barnea et al., Proc. Natl. Acad. Sci. USA 105:64 (2008)). The next day, cells were plated in white, clear-bottom, 384-well plates (Greiner, 10,000 cells/well, 50 μl/well) in DMEM containing 1% dialyzed fetal bovine serum. The following day, the cells were challenged with 10 μl/well of reference agonist (6 μM) or D2 test ligand (6 μM)±reference agonist prepared in HBS, 20 mM HEPES, pH 7.4, 18% DMSO (final ligand concentrations were 1 μM, final DMSO concentration was 3%).", "assay_type": "functional, cell-based"}}}
{"smiles": "COc1ccccc1N1CCCN(CCCCOc2ccc3c(n2)NC(=O)CC3)CC1", "values": [{"measurement": "EC50", "setting": "D(2) dopamine receptor [1]", "result": 222, "unit": "nM"}, {"measurement": "EC50", "setting": "D(2) dopamine receptor [2]", "result": 6.1, "unit": "nM"}]}
